{"source": "patent US20130005721A1", "about": "“INDOLIZINE INHIBITORS OF 5-LIPOXYGENASE” (PANMIRA PHARMACEUTICALS, LLC, priority 2009, published 2013)", "note": "pIC50: −log10 of the molar value."}
{"tested_on": "human leukocytes (LTB4 production, calcium ionophore stimulated)", "assay": "Human Leukocyte LTB4 Inhibition Assay", "assay_type": "cell-based", "conditions": "Leukocyte, LTB4 by ELISA, read-out: LTB4 HLA IC50", "procedure": "Human Leukocyte LTB4 Inhibition Assay\nA non-limiting example of a human leukocyte inhibition assay is as follows; Blood was drawn from consenting human volunteers into heparanized tubes and 3% dextran 0.9% saline ⅓ rd volume added. After sedimentation of red blood cells a hypotonic lysis of remaining red blood cells was performed and leukocytes sedimented at 1200 rpm. The pellet was resuspended at 1.25×10^5 cells/ml and aliquoted into wells containing 1 μL 100% DMSO (vehicle) or 2.5 μL drug in 100% DMSO. Samples were incubated for 5 minutes at 37° C. and 2 μL calcium ionophore […] (from a 50 mM DMSO stock diluted just prior to the assay in Hanks balanced salt solution (Invitrogen)) to 1.25 mM) was added, solutions mixed and incubated for 30 minutes at 37° C. Samples were centrifuged at 1,200 rpm (−200×g) for 10 minutes at 4° C., plasma removed and a 1:4 dilution assayed for LTB4 concentration using ELISA (Assay Designs). Drug concentrations to achieve 50% inhibition (IC50's) of vehicle LTB4 were determined by nonlinear regression (Graphpad Prism) of % inhibition versus log drug concentration."}
{"smiles": "CCC(O)(c1cn(Cc2ccn3c(-c4ccc(F)cc4)c(CNCCC(=O)O)cc3c2)nn1)C(F)(F)F", "note": "(stereo not shown) [Compound 1-40, 3-({3-(4-Fluoro-phenyl)-7-[4-(1-hydroxy-1-trifluoromethyl-propyl)-[1,2,3]triazol-1-ylmethyl]-indolizin-2-ylmethyl}-amino)-propionic acid]", "pIC50": "< 6.00"}
{"smiles": "CCC(O)(c1cn(Cc2ccn3c(-c4ccc(F)cc4)c(/C=C/C(=O)O)cc3c2)nn1)C(F)(F)F", "note": "(stereo not shown) [Compound 1-41, (E)-3-{3-(4-Fluoro-phenyl)-7-[4-(1-hydroxy-1-trifluoromethyl-propyl)-[1,2,3]triazol-1-ylmethyl]-indolizin-2-yl}-acrylic acid]", "pIC50": "6.00 to 6.52"}
{"smiles": "CCC(O)(c1cn(Cc2ccn3c(-c4ccc(F)cc4)c(CNCCC#N)cc3c2)nn1)C(F)(F)F", "note": "(stereo not shown) [Compound 1-42, 3-({3-(4-Fluoro-phenyl)-7-[4-(1-hydroxy-1-trifluoromethyl-propyl)-[1,2,3]triazol-1-ylmethyl]-indolizin-2-ylmethyl}-amino)-propionitrile]", "pIC50": "> 6.52"}
{"smiles": "CCC(O)(c1cn(Cc2ccn3c(-c4ccc(F)cc4)c(/C=C/C(N)=O)cc3c2)nn1)C(F)(F)F", "note": "(stereo not shown) [Compound 1-43, (E)-3-{3-(4-Fluoro-phenyl)-7-[4-(1-hydroxy-1-trifluoromethyl-propyl)-[1,2,3]triazol-1-ylmethyl]-indolizin-2-yl}-acrylamide]", "pIC50": "> 6.52"}
{"smiles": "CCC(O)(c1cn(Cc2ccn3c(-c4ccc(F)cc4)c(COC)cc3c2)nn1)C(F)(F)F", "note": "(stereo not shown) [Compound 1-44, 1,1,1-Trifluoro-2-{1-[3-(4-fluoro-phenyl)-2-methoxymethyl-indolizin-7-ylmethyl]-1H-[1,2,3]triazol-4-yl}-butan-2-ol]", "pIC50": "> 6.52"}
{"smiles": "CCC(OC)(c1cn(Cc2ccn3c(-c4ccc(F)cc4)c(COC)cc3c2)nn1)C(F)(F)F", "note": "(stereo not shown) [Compound 1-45, 3-(4-Fluoro-phenyl)-2-methoxymethyl-7-[4-(1-methoxy-1-trifluoromethyl-propyl)-[1,2,3]triazol-1-ylmethyl]-indolizine]", "pIC50": "> 6.52"}
{"smiles": "CCOC(=O)c1cc2cc(Cn3cc(C(O)(CC)C(F)(F)F)nn3)ccn2c1-c1cccc(F)c1", "note": "(stereo not shown) [Compound 1-46, 3-(3-Fluoro-phenyl)-7-[4-(1-hydroxy-1-trifluoromethyl-propyl)-[1,2,3]triazol-1-ylmethyl]-indolizine-2-carboxylic acid ethyl ester]", "pIC50": "> 6.52"}
{"smiles": "CCOC(=O)c1cc2cc(Cn3cc(C(O)(CC)C(F)(F)F)nn3)ccn2c1-c1cccc(S(C)(=O)=O)c1", "note": "(stereo not shown) [Compound 1-47, 7-[4-(1-Hydroxy-1-trifluoromethyl-propyl)-[1,2,3]triazol-1-ylmethyl]-3-(3-methanesulfonyl-phenyl)-indolizine-2-carboxylic acid ethyl ester]", "pIC50": "> 6.52"}
{"smiles": "CCC(O)(c1cn(Cc2ccn3c(-c4cccc(F)c4)c(C(N)=O)cc3c2)nn1)C(F)(F)F", "note": "(stereo not shown) [Compound 1-48, 3-(3-Fluoro-phenyl)-7-[4-(1-hydroxy-1-trifluoromethyl-propyl)-[1,2,3]triazol-1-ylmethyl]-indolizine-2-carboxylic acid amide]", "pIC50": "> 6.52"}
{"smiles": "CCC(O)(c1cn(Cc2ccn3c(-c4cccc(S(C)(=O)=O)c4)c(C#N)cc3c2)nn1)C(F)(F)F", "note": "(stereo not shown) [Compound 1-49, 7-[4-(1-Hydroxy-1-trifluoromethyl-propyl)-[1,2,3]triazol-1-ylmethyl]-3-(3-methanesulfonyl-phenyl)-indolizine-2-carbonitrile]", "pIC50": "6.00 to 6.52"}
{"smiles": "CCC(O)(c1cn(Cc2ccn3c(-c4ccc(F)cc4)c(C(=O)N4CCS(=O)(=O)C4)cc3c2)nn1)C(F)(F)F", "note": "(stereo not shown) [Compound 1-50, (1,1-Dioxo-1λ^6-thiazolidin-3-yl)-{3-(4-fluoro-phenyl)-7-[4-(1-hydroxy-1-trifluoromethyl-propyl)-[1,2,3]triazol-1-ylmethyl]-indolizin-2-yl}-methanone]", "pIC50": "< 6.00"}
{"smiles": "CCC(O)(c1cn(Cc2ccn3c(-c4ccc(F)cc4)c(C(=O)N(C)OC)cc3c2)nn1)C(F)(F)F", "note": "(stereo not shown) [Compound 1-51, 3-(4-Fluoro-phenyl)-7-[4-(1-hydroxy-1-trifluoromethyl-propyl)-[1,2,3]triazol-1-ylmethyl]-indolizine-2-carboxylic acid methoxy-methyl-amide]", "pIC50": "> 6.52"}
{"smiles": "CCOC(=O)c1cc2cc(Cn3cc(C(O)(CC)C(F)(F)F)nn3)ccn2c1-c1cnc2ccccc2c1", "note": "(stereo not shown) [Compound 1-52, 7-[4-(1-Hydroxy-1-trifluoromethyl-propyl) [1,2,3]triazol-1-ylmethyl]-3-quinolin-3-yl-indolizine-2-carboxylic acid ethyl ester]", "pIC50": "> 6.52"}
{"smiles": "CCC(O)(c1cn(Cc2ccn3c(-c4cnc5ccccc5c4)c(C#N)cc3c2)nn1)C(F)(F)F", "note": "(stereo not shown) [Compound 1-53, 7-[4-(1-Hydroxy-1-trifluoromethyl-propyl)-[1,2,3]triazol-1-ylmethyl]-3-quinolin-3-yl-indolizine-2-carbonitrile]", "pIC50": "> 6.52"}
{"smiles": "CCC(O)(c1cn(Cc2ccn3c(-c4ccc(F)cc4)c(C(C)=O)cc3c2)nn1)C(F)(F)F", "note": "(stereo not shown) [Compound 1-54, 1-{3-(4-Fluoro-phenyl)-7-[4-(1-hydroxy-1-trifluoromethyl-propyl)-[1,2,3]triazol-1-ylmethyl]-indolizin-2-yl}-ethanone]", "pIC50": "> 6.52"}
{"smiles": "CCNC(=O)c1cc2cc(Cn3cc(C(O)(CC)C(F)(F)F)nn3)ccn2c1-c1ccc(F)cc1", "note": "(stereo not shown) [Compound 1-55, 3-(4-Fluoro-phenyl)-7-[4-(1-hydroxy-1-trifluoromethyl-propyl)-[1,2,3]triazol-1-ylmethyl]-indolizine-2-carboxylic acid ethylamide]", "pIC50": "6.00 to 6.52"}
{"smiles": "CCOC(=O)c1cc2cc(Cn3cc(C(O)(CC)C(F)(F)F)nn3)ccn2c1-c1ccc(OCC)nc1", "note": "(stereo not shown) [Compound 1-56, 3-(6-Ethoxy-pyridin-3-yl)-7-[4-(1-hydroxy-1-trifluoromethyl-propyl)-[1,2,3]triazol-1-ylmethyl]-indolizine-2-carboxylic acid ethyl ester]", "pIC50": "> 6.52"}
{"smiles": "CCC(O)(c1cn(Cc2ccn3c(-c4ccc(OC)nc4)c(C#N)cc3c2)nn1)C(F)(F)F", "note": "(stereo not shown) [Compound 1-57, 7-[4-(1-Hydroxy-1-trifluoromethyl-propyl)-[1,2,3]triazol-1-ylmethyl]-3-(6-methoxy-pyridin-3-yl)-indolizine-2-carbonitrile]", "pIC50": "> 6.52"}
{"smiles": "CCOc1ccc(-c2c(C(N)=O)cc3cc(Cn4cc(C(O)(CC)C(F)(F)F)nn4)ccn23)cn1", "note": "(stereo not shown) [Compound 1-58, 3-(6-Ethoxy-pyridin-3-yl)-7-[4-(1-hydroxy-1-trifluoromethyl-propyl)-[1,2,3]triazol-1-ylmethyl]-indolizine-2-carboxylic acid amide]", "pIC50": "< 6.00"}
{"smiles": "CCOc1ccc(-c2c(C#N)cc3cc(Cn4cc(C(O)(CC)C(F)(F)F)nn4)ccn23)cn1", "note": "(stereo not shown) [Compound 1-59, 3-(6-Ethoxy-pyridin-3-yl)-7-[4-(1-hydroxy-1-trifluoromethyl-propyl)-[1,2,3]triazol-1-ylmethyl]-indolizine-2-carbonitrile]", "pIC50": "> 6.52"}
{"smiles": "CCNCc1cc2cc(Cn3cc(C(O)(CC)C(F)(F)F)nn3)ccn2c1-c1ccc(F)cc1", "note": "(stereo not shown) [Compound 1-60, 2-{1-[2-Ethylaminomethyl-3-(4-fluoro-phenyl)-indolizin-7-ylmethyl]-1H-[1,2,3]triazol-4-yl}-1,1,1-trifluoro-butan-2-ol]", "pIC50": "< 6.00"}
{"smiles": "CCC(O)(c1cn(Cc2ccn3c(-c4ccc(F)cc4)c(C(N)=O)c(Cl)c3c2)nn1)C(F)(F)F", "note": "(stereo not shown) [Compound 1-61, 1-Chloro-3-(4-fluoro-phenyl)-7-[4-(1-hydroxy-1-trifluoromethyl-propyl)-[1,2,3]triazol-1-ylmethyl]-indolizine-2-carboxylic acid amide]", "pIC50": "> 6.52"}
{"smiles": "CCOC(=O)c1cc2cc(Cn3cc(C(O)(CC)C(F)(F)F)nn3)ccn2c1-c1ccc(=O)n(C)c1", "note": "(stereo not shown) [Compound 1-62, 7-[4-(1-Hydroxy-1-trifluoromethyl-propyl)-[1,2,3]triazol-1-ylmethyl]-3-(1-methyl-6-oxo-1,6-dihydro-pyridin-3-yl)-indolizine-2-carboxylic acid ethyl ester]", "pIC50": "6.00 to 6.52"}
{"smiles": "CCOC(=O)c1cc2cc(Cn3cc(C(O)(CC)C(F)(F)F)nn3)ccn2c1-c1ccnc(C)c1", "note": "(stereo not shown) [Compound 1-63, 7-[4-(1-Hydroxy-1-trifluoromethyl-propyl)-[1,2,3]triazol-1-ylmethyl]-3-(2-methyl-pyridin-4-yl)-indolizine-2-carboxylic acid ethyl ester]", "pIC50": "> 6.52"}
{"smiles": "CCC(O)(c1cn(Cc2ccn3c(-c4ccnc(C)c4)c(C(N)=O)cc3c2)nn1)C(F)(F)F", "note": "(stereo not shown) [Compound 1-64, 7-[4-(1-Hydroxy-1-trifluoromethyl-propyl)-[1,2,3]triazol-1-ylmethyl]-3-(2-methyl-pyridin-4-yl)-indolizine-2-carboxylic acid amide]", "pIC50": "< 6.00"}
{"smiles": "CCC(O)(c1cn(Cc2ccn3c(-c4ccnc(C)c4)c(C#N)cc3c2)nn1)C(F)(F)F", "note": "(stereo not shown) [Compound 1-65, 7-[4-(1-Hydroxy-1-trifluoromethyl-propyl)-[1,2,3]triazol-1-ylmethyl]-3-(2-methyl-pyridin-4-yl)-indolizine-2-carbonitrile]", "pIC50": "> 6.52"}
{"smiles": "CCC(O)(c1cn(Cc2ccn3c(C(C)=O)c(C(=O)OC)cc3c2)nn1)C(F)(F)F", "note": "(stereo not shown) [Compound 1-66, 3-Acetyl-7-[4-(1-hydroxy-1-trifluoromethyl-propyl)-[1,2,3]triazol-1-ylmethyl]-indolizine-2-carboxylic acid methyl ester]", "pIC50": "> 6.52"}
{"smiles": "CCC(O)(c1cn(Cc2ccn3c(C(C)=O)c(C(N)=O)cc3c2)nn1)C(F)(F)F", "note": "(stereo not shown) [Compound 1-67, 3-Acetyl-7-[4-(1-hydroxy-1-trifluoromethyl-propyl)-[1,2,3]triazol-1-ylmethyl]-indolizine-2-carboxylic acid amide]", "pIC50": "< 6.00"}
